Assay results taken from ChEMBL document CHEMBL1138518 (J Med Chem, 2009).

Legend:
SK-BR-3 = assay: Cytotoxicity against human SKBR3 cells after 72 hrs by celltiter-glo assay; type: functional, cell-based
SK-OV-3 = assay: Cytotoxicity against human SKOV3 cells after 72 hrs by celltiter-glo assay; type: functional, cell-based; settings: SK-OV-3, 72 h
CCRF-CEM [1] = assay: Cytotoxicity against human paclitaxel-resistant CCRF-CEM cells after 72 hrs by celltiter-96 aqueous one solution assay; type: functional, cell-based
A549 = assay: Cytotoxicity against human A549 cells after 72 hrs by celltiter-glo assay; type: functional, cell-based; settings: A549, 72 h
[2] = molecular target: Heat shock protein HSP 90-beta (Homo sapiens, UniProt P08238); assay: Binding affinity to human recombinant HSP90
CCRF-CEM [3] = assay: Cytotoxicity against human CCRF-CEM cells after 72 hrs by celltiter-96 aqueous one solution assay; type: functional, cell-based
MCF7 = assay: Cytotoxicity against human MCF7 cells after 72 hrs by celltiter-glo assay; type: functional, cell-based; settings: MCF7, 72 h

Sequence of Heat shock protein HSP 90-beta (P08238 whole entry): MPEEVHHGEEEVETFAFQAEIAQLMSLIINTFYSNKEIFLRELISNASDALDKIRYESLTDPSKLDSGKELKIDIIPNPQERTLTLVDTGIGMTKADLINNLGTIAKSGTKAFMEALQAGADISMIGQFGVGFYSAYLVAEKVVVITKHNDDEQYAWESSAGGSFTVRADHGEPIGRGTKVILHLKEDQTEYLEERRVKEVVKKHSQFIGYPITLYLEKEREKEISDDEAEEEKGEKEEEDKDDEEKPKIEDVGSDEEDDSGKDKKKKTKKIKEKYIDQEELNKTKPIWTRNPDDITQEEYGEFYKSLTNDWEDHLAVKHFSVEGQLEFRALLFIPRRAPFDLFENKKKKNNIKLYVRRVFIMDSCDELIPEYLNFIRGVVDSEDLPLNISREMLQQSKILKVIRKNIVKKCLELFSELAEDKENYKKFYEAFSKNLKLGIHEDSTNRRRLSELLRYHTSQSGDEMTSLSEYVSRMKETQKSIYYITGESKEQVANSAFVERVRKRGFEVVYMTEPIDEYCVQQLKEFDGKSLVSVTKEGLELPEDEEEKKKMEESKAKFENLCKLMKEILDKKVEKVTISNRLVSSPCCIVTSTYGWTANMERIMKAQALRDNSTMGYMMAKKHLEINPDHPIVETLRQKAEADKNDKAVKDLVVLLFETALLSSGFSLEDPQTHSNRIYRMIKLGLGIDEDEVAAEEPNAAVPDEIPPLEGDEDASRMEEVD

| Kd [2] | Structure (SMILES) | IC50 (SK-BR-3; Homo sapiens, SK-BR-3, 72 h) | also measured |
| --- | --- | --- | --- |
| 1800 nM | CO[C@H]1C[C@H](C)CC2=C(NCCN(C)C)C(=O)C=C(NC(=O)/C(C)=C/C=C\[C@H](OC)[C@@H](OC(N)=O)/C(C)=C/[C@H](C)C1=O)C2=O (stereo in doubt) | 100 nM |  |
| 2900 nM | C=CCO[C@H]1[C@@H](OC)C[C@H](C)CC2=C(N3CCC3)C(=O)C=C(NC(=O)/C(C)=C/C=C\[C@H](OC)[C@@H](OC(N)=O)/C(C)=C/[C@@H]1C)C2=O | 390 nM |  |
| > 25000 nM | CO[C@H]1C[C@H](C)CC2=C(N3CCC3)C(=O)C=C(NC(=O)/C(C)=C/C=C\[C@H](OC)[C@@H](OC(N)=O)/C(C)=C/[C@H](C)/C1=N\O)C2=O | 310 nM |  |
| 2600 nM | CO[C@H]1C[C@H](C)CC2=C(NCCF)C(=O)C=C(NC(=O)/C(C)=C/C=C\[C@H](OC)[C@@H](OC(N)=O)/C(C)=C/[C@H](C)C1=O)C2=O (stereo in doubt) | 170 nM |  |
|  | C=CCNC1=C2C[C@@H](C)C[C@H](OC)[C@H](O)[C@@H](C)/C=C(\C)[C@H](OC(N)=O)[C@@H](OC)/C=C\C=C(/C)C(=O)NC(=CC1=O)C2=O [TANESPIMYCIN] | 33 nM |  |
| > 10000 nM | C=CCNC1=C2C[C@@H](C)C[C@H](OC)/C(=N/O)[C@@H](C)/C=C(\C)[C@H](OC(N)=O)[C@@H](OC)/C=C\C=C(/C)C(=O)NC(=CC1=O)C2=O | 350 nM |  |
| > 10000 nM | CO[C@H]1C[C@H](C)CC2=C(NCCN(C)C)C(=O)C=C(NC(=O)/C(C)=C/C=C\[C@H](OC)[C@@H](OC(N)=O)/C(C)=C/[C@H](C)/C1=N\O)C2=O (stereo in doubt) | 95 nM |  |
| > 100000 nM | CO/N=C1/[C@@H](OC)C[C@H](C)CC2=C(NCCN(C)C)C(=O)C=C(NC(=O)/C(C)=C/C=C\[C@H](OC)[C@@H](OC(N)=O)/C(C)=C/[C@@H]1C)C2=O (stereo in doubt) | 550 nM |  |
|  | COC1=C2C[C@@H](C)C[C@H](OC)[C@H](O)[C@@H](C)/C=C(\C)[C@H](OC(N)=O)[C@@H](OC)/C=C\C=C(/C)C(=O)NC(=CC1=O)C2=O [GELDANAMYCIN] |  | IC50 (SK-BR-3; sk-br-3): 41 nM |
| > 25000 nM | CO[C@H]1C[C@H](C)CC2=C(NCCN(C)C)C(=O)C=C(NC(=O)/C(C)=C/C=C\[C@H](OC)[C@@H](OC(N)=O)/C(C)=C/[C@H](C)/C1=N\OCC(=O)O)C2=O (stereo in doubt) | 2700 nM |  |
| > 100000 nM | C=CCO/N=C1/[C@@H](OC)C[C@H](C)CC2=C(NCCN(C)C)C(=O)C=C(NC(=O)/C(C)=C/C=C\[C@H](OC)[C@@H](OC(N)=O)/C(C)=C/[C@@H]1C)C2=O (stereo in doubt) | 400 nM |  |
| 400 nM | CO[C@H]1/C=C\C=C(/C)C(=O)NC2=CC(=O)C(NCCN3CCC3)=C(C[C@@H](C)C[C@H](OC)[C@H](O)[C@@H](C)/C=C(\C)[C@@H]1OC(N)=O)C2=O (stereo in doubt) | 26 nM |  |
|  | CO[C@H]1/C=C\C=C(/C)C(=O)NC2=CC(=O)C(NCCN(C)C)=C(C[C@@H](C)C[C@H](OC)[C@H](O)[C@@H](C)/C=C(\C)[C@@H]1OC(N)=O)C2=O (stereo in doubt) [ALVESPIMYCIN] | 24 nM | IC50 (SK-OV-3): 220 nM; IC50 (CCRF-CEM [1]): 2500 nM; IC50 (A549): 68 nM; IC50 (CCRF-CEM [3]): 540 nM; IC50 (MCF7): 230 nM |
| 6400 nM | CO[C@H]1C[C@H](C)CC2=C(N3CCC3)C(=O)C=C(NC(=O)/C(C)=C/C=C\[C@H](OC)[C@@H](OC(N)=O)/C(C)=C/[C@H](C)C1=O)C2=O (stereo in doubt) | 260 nM |  |
| > 100000 nM | CO[C@H]1C[C@H](C)CC2=C(NCCN(C)C)C(=O)C=C(NC(=O)/C(C)=C/C=C\[C@H](OC)[C@@H](OC(N)=O)/C(C)=C/[C@H](C)/C1=N\OCCN(C)C)C2=O (stereo in doubt) | 2500 nM |  |
| 800 nM | CO[C@H]1/C=C\C=C(/C)C(=O)NC2=CC(=O)C(NCCc3c[nH]cn3)=C(C[C@@H](C)C[C@H](OC)[C@H](O)[C@@H](C)/C=C(\C)[C@@H]1OC(N)=O)C2=O (stereo in doubt) | 98 nM |  |
| > 100000 nM | CO[C@H]1C[C@H](C)CC2=C(NCCN(C)C)C(=O)C=C(NC(=O)/C(C)=C/C=C\[C@H](OC)[C@@H](OC(N)=O)/C(C)=C/[C@H](C)/C1=N\OCc1ccccc1)C2=O (stereo in doubt) | 480 nM |  |
|  | CO[C@H]1/C=C\C=C(/C)C(=O)NC2=CC(=O)C(NCCN(C)C)=C(C[C@@H](C)C[C@H](OC)[C@H](OC(=O)NN)[C@@H](C)/C=C(\C)[C@@H]1OC(N)=O)C2=O | > 1000 nM | IC50 [2]: 5 nM |
| 3300 nM | C=CCNC1=C2C[C@@H](C)C[C@H](OC)C(=O)[C@@H](C)/C=C(\C)[C@H](OC(N)=O)[C@@H](OC)/C=C\C=C(/C)C(=O)NC(=CC1=O)C2=O (stereo in doubt) | 450 nM |  |

| Structure (SMILES) | Kd [2] | IC50 (SK-BR-3; Homo sapiens, SK-BR-3, 72 h) | also measured |
| --- | --- | --- | --- |
| CO[C@H]1[C@@H](OC)C[C@H](C)CC2=C(N)C(=O)C=C(NC(=O)/C(C)=C/C=C\[C@H](OC)[C@@H](OC(N)=O)/C(C)=C/[C@@H]1C)C2=O | 320 nM | 84 nM | IC50 (SK-OV-3): 200 nM; IC50 (CCRF-CEM [1]): 850 nM; IC50 (A549): 37 nM; IC50 (CCRF-CEM [3]): 250 nM; IC50 (MCF7): 350 nM |
| CO[C@H]1[C@@H](OC)C[C@H](C)CC2=C(NCCc3c[nH]cn3)C(=O)C=C(NC(=O)/C(C)=C/C=C\[C@H](OC)[C@@H](OC(N)=O)/C(C)=C/[C@@H]1C)C2=O (stereo in doubt) | 2000 nM | 60 nM | IC50 (SK-OV-3): 320 nM; IC50 (CCRF-CEM [1]): 3000 nM; IC50 (A549): 420 nM; IC50 (CCRF-CEM [3]): 510 nM; IC50 (MCF7): 160 nM |
| CO[C@H]1[C@@H](OC)C[C@H](C)CC2=C(NCCN3CCC3)C(=O)C=C(NC(=O)/C(C)=C/C=C\[C@H](OC)[C@@H](OC(N)=O)/C(C)=C/[C@@H]1C)C2=O (stereo in doubt) | 1000 nM | 130 nM | IC50 (SK-OV-3): 65 nM; IC50 (CCRF-CEM [1]): 510 nM; IC50 (A549): 26 nM; IC50 (CCRF-CEM [3]): 85 nM; IC50 (MCF7): 51 nM |
| CO[C@H]1/C=C\C=C(/C)C(=O)NC2=CC(=O)C(NCCF)=C(C[C@@H](C)C[C@H](OC)[C@H](O)[C@@H](C)/C=C(\C)[C@@H]1OC(N)=O)C2=O (stereo in doubt) | 800 nM | 17 nM |  |
| COC1=C2C[C@@H](C)C[C@H](OC)[C@H](OC)[C@@H](C)/C=C(\C)[C@H](OC(N)=O)[C@@H](OC)/C=C\C=C(/C)C(=O)NC(=CC1=O)C2=O | 490 nM | 9.1 nM |  |
| CO[C@H]1/C=C\C=C(/C)C(=O)NC2=CC(=O)C(N)=C(C[C@@H](C)C[C@H](OC)[C@H](O)[C@@H](C)/C=C(\C)[C@@H]1OC(N)=O)C2=O (stereo in doubt) | 100 nM | 33 nM |  |
| CO[C@H]1/C=C\C=C(/C)C(=O)NC2=CC(=O)C(NCCF)=C(C[C@@H](C)C[C@H](OC)[C@H](OC(=O)CN)[C@@H](C)/C=C(\C)[C@@H]1OC(N)=O)C2=O (stereo in doubt) | > 25000 nM | 110 nM |  |
| CO[C@H]1/C=C\C=C(/C)C(=O)NC2=CC(=O)C(N3CCC3)=C(C[C@@H](C)C[C@H](OC)[C@H](O)[C@@H](C)/C=C(\C)[C@@H]1OC(N)=O)C2=O (stereo in doubt) | 1400 nM | 24 nM |  |
| CO[C@H]1C[C@H](C)CC2=C(NCCF)C(=O)C=C(NC(=O)/C(C)=C/C=C\[C@H](OC)[C@@H](OC(N)=O)/C(C)=C/[C@H](C)/C1=N\O)C2=O | > 25000 nM | > 1000 nM |  |
| CO[C@H]1/C=C\C=C(/C)C(=O)NC2=CC(=O)C(NCCN3CCCC3)=C(C[C@@H](C)C[C@H](OC)[C@H](O)[C@@H](C)/C=C(\C)[C@@H]1OC(N)=O)C2=O (stereo in doubt) | 400 nM | 70 nM |  |
